Measurements taken from paper PMC12560751 (RSC Advances, 2025).

Assays:
Type in all cases: biochemical
[1] = biological target: AChE (Homo sapiens, UniProt P22303); assay: Anticholinesterase activity, modified colorimetric Ellman method; settings: for inhibition at 100 µM / inhibition at 1000 µM: read-out: AChE % inhibition; for Selectivity and indexes: selective for AChE (over BChE)
[2] = biological target: BChE (Homo sapiens, UniProt P06276); assay: as above; settings: for inhibition at 100 µM / inhibition at 1000 µM: read-out: BChE % inhibition
BChE, sequence (P06276 29-602, species assumed): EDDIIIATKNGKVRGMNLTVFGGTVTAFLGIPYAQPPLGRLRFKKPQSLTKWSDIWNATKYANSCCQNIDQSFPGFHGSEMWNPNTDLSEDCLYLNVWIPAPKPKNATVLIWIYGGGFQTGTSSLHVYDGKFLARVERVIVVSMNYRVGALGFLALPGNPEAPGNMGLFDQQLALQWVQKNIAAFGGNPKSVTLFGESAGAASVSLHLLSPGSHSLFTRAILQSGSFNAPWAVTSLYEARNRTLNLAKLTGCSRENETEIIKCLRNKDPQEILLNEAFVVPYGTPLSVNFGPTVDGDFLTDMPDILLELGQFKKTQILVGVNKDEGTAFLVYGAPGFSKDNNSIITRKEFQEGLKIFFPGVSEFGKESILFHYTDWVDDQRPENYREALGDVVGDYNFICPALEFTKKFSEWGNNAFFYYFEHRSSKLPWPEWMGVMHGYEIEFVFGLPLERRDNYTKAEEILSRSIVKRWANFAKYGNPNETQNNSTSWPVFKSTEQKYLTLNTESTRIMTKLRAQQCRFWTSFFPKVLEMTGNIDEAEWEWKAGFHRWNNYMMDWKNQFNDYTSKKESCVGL

[3] = biological target: T1, hMAO A (Homo sapiens, UniProt P21397); assay: MAO A inhibition, fluorometric method; settings: for inhibition at 100 µM / inhibition at 1000 µM: read-out: MAO A % inhibition; for Selectivity and indexes: selective for MAO-A (over MAO B)
T1 sequence (P21397 1-527): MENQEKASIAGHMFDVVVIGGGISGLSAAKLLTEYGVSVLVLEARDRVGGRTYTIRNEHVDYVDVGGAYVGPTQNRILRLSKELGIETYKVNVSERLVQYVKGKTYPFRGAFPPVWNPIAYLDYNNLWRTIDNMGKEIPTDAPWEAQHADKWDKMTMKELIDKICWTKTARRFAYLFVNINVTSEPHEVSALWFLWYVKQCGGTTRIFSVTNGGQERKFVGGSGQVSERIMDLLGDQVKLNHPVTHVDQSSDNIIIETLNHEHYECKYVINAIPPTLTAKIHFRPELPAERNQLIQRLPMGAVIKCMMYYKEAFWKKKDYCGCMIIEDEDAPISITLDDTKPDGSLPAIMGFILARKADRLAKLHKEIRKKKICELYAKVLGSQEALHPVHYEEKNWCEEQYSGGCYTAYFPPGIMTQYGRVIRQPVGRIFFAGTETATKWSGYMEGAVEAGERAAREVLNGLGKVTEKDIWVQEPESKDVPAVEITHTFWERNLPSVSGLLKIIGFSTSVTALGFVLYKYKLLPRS

[4] = biological target: T2, recombinant hMAO B (Homo sapiens, UniProt P27338); assay: MAO B inhibition, fluorometric method; settings: for inhibition at 100 µM / inhibition at 1000 µM: read-out: MAO B % inhibition; for Selectivity and indexes: selective for MAO-B (over MAO A)
T2 sequence (P27338 1-520): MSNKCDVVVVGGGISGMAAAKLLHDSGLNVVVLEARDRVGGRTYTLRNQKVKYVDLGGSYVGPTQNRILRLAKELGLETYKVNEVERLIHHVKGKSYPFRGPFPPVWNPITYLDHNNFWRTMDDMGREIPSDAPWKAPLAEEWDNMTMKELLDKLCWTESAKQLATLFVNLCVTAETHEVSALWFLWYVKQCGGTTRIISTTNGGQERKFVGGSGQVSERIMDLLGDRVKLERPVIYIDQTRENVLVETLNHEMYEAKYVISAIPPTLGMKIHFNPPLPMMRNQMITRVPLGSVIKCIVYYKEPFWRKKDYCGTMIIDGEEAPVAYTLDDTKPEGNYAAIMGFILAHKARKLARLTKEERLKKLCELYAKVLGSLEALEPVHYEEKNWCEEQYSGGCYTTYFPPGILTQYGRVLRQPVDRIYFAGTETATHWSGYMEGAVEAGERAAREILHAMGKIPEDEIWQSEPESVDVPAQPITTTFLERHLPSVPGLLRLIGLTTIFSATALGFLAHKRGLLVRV

AChE, sequence (P22303 32-614): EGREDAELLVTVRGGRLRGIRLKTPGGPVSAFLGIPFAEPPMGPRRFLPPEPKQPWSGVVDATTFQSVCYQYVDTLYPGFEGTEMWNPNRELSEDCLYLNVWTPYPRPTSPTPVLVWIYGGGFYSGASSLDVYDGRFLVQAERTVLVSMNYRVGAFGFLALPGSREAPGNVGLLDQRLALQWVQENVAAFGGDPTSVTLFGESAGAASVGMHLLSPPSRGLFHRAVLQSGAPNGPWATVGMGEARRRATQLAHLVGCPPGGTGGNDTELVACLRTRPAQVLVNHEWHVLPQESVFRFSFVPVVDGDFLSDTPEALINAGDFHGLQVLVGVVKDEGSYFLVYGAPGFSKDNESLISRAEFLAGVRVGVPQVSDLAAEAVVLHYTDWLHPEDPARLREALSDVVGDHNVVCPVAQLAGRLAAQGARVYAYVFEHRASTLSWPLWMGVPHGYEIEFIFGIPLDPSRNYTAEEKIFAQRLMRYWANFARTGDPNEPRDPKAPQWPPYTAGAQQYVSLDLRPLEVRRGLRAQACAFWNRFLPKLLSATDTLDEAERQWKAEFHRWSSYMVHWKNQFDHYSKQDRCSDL

| SMILES | IC50 [1] | inhibition at 100 µM [1] | inhibition at 1000 µM [1] | IC50 [2] | inhibition at 100 µM [2] | inhibition at 1000 µM [2] | IC50 [3] | inhibition at 100 µM [3] | inhibition at 1000 µM [3] | Selectivity and indexes [3] | IC50 ([4]; MAO B IC50, tables) | inhibition at 100 µM [4] | inhibition at 1000 µM [4] | Selectivity and indexes [1] | Selectivity and indexes [4] | IC50 ([4]; MAO B IC50, text) | inhibition at 10 µM ([4]; read-out: MAO B inhibition) |
| --- | --- | --- | --- | --- | --- | --- | --- | --- | --- | --- | --- | --- | --- | --- | --- | --- | --- |
| C=CCN1CCN(CC(=O)Nc2ccc(C=CC(=O)c3ccc(OC)c(OC)c3)cc2)CC1 [Compound 4d, 2-(4-Allylpiperazin-1-yl)-N-(4-(3-(3,4-dimethoxyphenyl)-3-oxoprop-1-en-1-yl)phenyl)acetamide] | > 100000 nM | 40 ± 1.02% | 80.7 ± 3.34% | > 1 mM | 20.1 ± 0.964% | 40.3 ± 1.21% | > 0.1 mM | 41.4 ± 1.96% | 55 ± 2.06% | MAO-A/>10 | > 1000 µM | 30.1 ± 0.957% | 36.7 ± 1.04% | – | – | – | – |
| COc1ccc(C(=O)C=Cc2ccc(NC(=O)CN3CCN(CCN(C)C)CC3)cc2)cc1OC [Compound 4j, N-(4-(3-(3,4-Dimethoxyphenyl)-3-oxoprop-1-en-1-yl)phenyl)-2-(4-(2-(dimethylamino)ethyl)piperazin-1-yl)acetamide] | 43 ± 2 nM | 92.2 ± 3.48% | 94 ± 1.94% | > 1 mM | 28.4 ± 1.16% | 42.7 ± 2.06% | > 1 mM | 32.3 ± 1.14% | 47.7 ± 1.94% | – | > 100 µM | 40.1 ± 1.06% | 82.2 ± 3.03% | AChE/>1000 | MAO-B/>10 | – | – |
| COc1ccc(C(=O)C=Cc2ccc(NC(=O)CN3CCN(CCCO)CC3)cc2)cc1OC [Compound 4i, N-(4-(3-(3,4-Dimethoxyphenyl)-3-oxoprop-1-en-1-yl)phenyl)-2-(4-(3-hydroxypropyl)piperazin-1-yl)acetamide] | 84 ± 3 nM | 90.5 ± 2.83% | 94.2 ± 2.06% | > 1 mM | 23.6 ± 1.07% | 39.6 ± 1.34% | > 1 mM | 29.1 ± 0.962% | 41.1 ± 2.06% | – | > 100 µM | 47.4 ± 1.62% | 74.1 ± 2.42% | AChE/>1000 | MAO-B/>10 | – | – |
| C#CCN1CCN(CC(=O)Nc2ccc(C=CC(=O)c3ccc(OC)c(OC)c3)cc2)CC1 [Compound 4e, N-(4-(3-(3,4-Dimethoxyphenyl)-3-oxoprop-1-en-1-yl)phenyl)-2-(4-(prop-2-yn-1-yl)piperazin-1-yl)acetamide] | > 100000 nM | 39.4 ± 1.32% | 67.2 ± 2.11% | > 1 mM | 21.9 ± 0.835% | 38 ± 0.964% | > 0.1 mM | 44.2 ± 1.87% | 61.4 ± 1.95% | – | > 100 µM | 39.3 ± 1.48% | 78.2 ± 2.48% | – | – | – | – |
| COc1ccc(C(=O)C=Cc2ccc(NC(=O)CN3CCN(C4CCCC4)CC3)cc2)cc1OC [Compound 4l, 2-(4-Cyclopentylpiperazin-1-yl)-N-(4-(3-(3,4-dimethoxyphenyl)-3-oxoprop-1-en-1-yl)phenyl)acetamide] | > 100000 nM | 40.3 ± 1.82% | 76.9 ± 2.36% | > 1 mM | 32.7 ± 1.35% | 41 ± 2% | > 1 mM | 30.4 ± 1.25% | 36.7 ± 0.984% | – | > 1000 µM | 29.7 ± 0.841% | 46.7 ± 1.15% | – | – | – | – |
| COc1ccc(C(=O)C=Cc2ccc(NC(=O)CN3CCN(C=O)CC3)cc2)cc1OC [Compound 4f, N-(4-(3-(3,4-Dimethoxyphenyl)-3-oxoprop-1-en-1-yl)phenyl)-2-(4-formylpiperazin-1-yl)acetamide] | 48 ± 2 nM | 94.8 ± 3.96% | 96.8 ± 2.93% | > 1 mM | 24.3 ± 0.829% | 31.7 ± 1.37% | > 1 mM | 28.8 ± 0.861% | 40.8 ± 0.955% | – | 0.137 ± 0.005 µM | 88.6 ± 1.83% | 90.7 ± 2.62% | AChE/>1000 | MAO-B/>1000 | < 1 µM | 88.6 ± 1.83% |
| COc1ccc(C(=O)C=Cc2ccc(NC(=O)CN3CCN(C(C)C)CC3)cc2)cc1OC [Compound 4c, N-(4-(3-(3,4-Dimethoxyphenyl)-3-oxoprop-1-en-1-yl)phenyl)-2-(4-isopropylpiperazin-1-yl)acetamide] | > 100000 nM | 48.2 ± 1.98% | 79.2 ± 3.03% | > 1 mM | 25.5 ± 1.1% | 46 ± 1.92% | > 1 mM | 39 ± 0.933% | 47.4 ± 0.836% | – | > 1000 µM | 28.9 ± 1.02% | 41.1 ± 0.941% | – | – | – | – |
| CCN1CCN(CC(=O)Nc2ccc(C=CC(=O)c3ccc(OC)c(OC)c3)cc2)CC1 [Compound 4b, N-(4-(3-(3,4-Dimethoxyphenyl)-3-oxoprop-1-en-1-yl)phenyl)-2-(4-ethylpiperazin-1-yl)acetamide] | 93 ± 3 nM | 88.7 ± 2.23% | 92.6 ± 2.45% | > 1 mM | 27 ± 0.877% | 31.1 ± 1.03% | > 0.1 mM | 31.2 ± 1.24% | 53.1 ± 2.17% | – | > 100 µM | 40.1 ± 1.97% | 60.4 ± 2.27% | AChE/>1000 | – | – | – |
| COc1ccc(C(=O)C=Cc2ccc(NC(=O)CN3CCN(C)CC3)cc2)cc1OC [Compound 4a, N-(4-(3-(3,4-Dimethoxyphenyl)-3-oxoprop-1-en-1-yl)phenyl)-2-(4-methylpiperazin-1-yl)acetamide] | 68 ± 3 nM | 90.3 ± 1.86% | 93.5 ± 3.16% | > 1 mM | 24.6 ± 0.974% | 42.5 ± 1.85% | > 1 mM | 38.7 ± 1.06% | 47.7 ± 2.04% | – | 0.274 ± 0.012 µM | 80.5 ± 2.24% | 84 ± 1.93% | AChE/>1000 | MAO-B/>1000 | < 1 µM | – |
| COc1ccc(C(=O)C=Cc2ccc(NC(=O)CN3CCN(CCCN(C)C)CC3)cc2)cc1OC [Compound 4k, N-(4-(3-(3,4-Dimethoxyphenyl)-3-oxoprop-1-en-1-yl)phenyl)-2-(4-(3-(dimethylamino)propyl)piperazin-1-yl)acetamide] | 39 ± 1 nM | 94.1 ± 2.96% | 97.4 ± 2.81% | > 1 mM | 29 ± 1.04% | 46 ± 1.87% | > 0.1 mM | 41.3 ± 1.94% | 63 ± 2.86% | MAO-A/>10 | > 1000 µM | 36.1 ± 0.964% | 48.7 ± 1.84% | AChE/>1000 | – | – | – |
| COc1ccc(C(=O)C=Cc2ccc(NC(=O)CN3CCN(S(C)(=O)=O)CC3)cc2)cc1OC [Compound 4m, N-(4-(3-(3,4-Dimethoxyphenyl)-3-oxoprop-1-en-1-yl)phenyl)-2-(4-(methylsulfonyl)piperazin-1-yl)acetamide] | 158 ± 6 nM | 87.6 ± 1.72% | 89.4 ± 2.59% | > 1 mM | 33.3 ± 1.22% | 37.3 ± 0.961% | > 1 mM | 33.6 ± 1.32% | 39.4 ± 1.37% | – | > 100 µM | 29 ± 0.826% | 58 ± 1.63% | AChE/>1000 | MAO-B/>10 | – | – |
| COCCN1CCN(CC(=O)Nc2ccc(C=CC(=O)c3ccc(OC)c(OC)c3)cc2)CC1 [Compound 4h, N-(4-(3-(3,4-Dimethoxyphenyl)-3-oxoprop-1-en-1-yl)phenyl)-2-(4-(2-methoxyethyl)piperazin-1-yl)acetamide] | 120 ± 5 nM | 86.5 ± 1.35% | 90.6 ± 2.75% | > 1 mM | 21.5 ± 0.874% | 30.2 ± 1.13% | > 0.1 mM | 28.6 ± 1.05% | 59.9 ± 2.24% | – | > 100 µM | 41.3 ± 0.916% | 79.5 ± 2.86% | AChE/>1000 | – | – | – |
